In article PMC9822155, “Synthesis and Antiproliferative Activity against Cancer Cells of Indole-Aryl-Amide Derivatives” (Molecules, 2022):

Legend:
[1] = test system: PC-3 (human prostate adenocarcinoma) cells; experiment: MTT viability assay, PC3; assay type: cell-based; conditions: for IC50: Homo sapiens, MTT, 24 h
Description: (§1) To investigate whether the compounds have an antitumor activity, we performed in vitro viability assays against a panel of cancer cell lines: HT29 (human colorectal adenocarcinoma), HeLa (human cervical carcinoma), IGROV-1 (human ovarian carcinoma), MCF7 (human breast cancer), PC-3 (human prostate adenocarcinoma), and Jurkat J6 (human […]). The I407 (human embryonic intestinal) and 3T3 (mouse embryonic fibroblast) cells were used as controls. The growth inhibitory concentration was determined by incubating the cells with increasing concentrations (0.01–500 μM) of the compounds for 24 h. Data obtained from cell growth assays were elaborated to assess the concentration of cell viability (IC50) and selectivity indices (SI), and the results are shown in Table 2 and Table 3, respectively.
(§2) HT29 human colorectal adenocarcinoma cells, HeLa human cervix adenocarcinoma cells, MCF7 human breast adenocarcinoma cells, PC-3 human prostate adenocarcinoma cells, J6 Jurkat Clone E6-1 acute T cell leukemia, the healthy I407 human intestine cells, and mouse embryonic fibroblast 3T3 fibroblasts as controls cell lines were purchased from American Type Culture Collection (ATCC, Manassas, VA). The human ovarian cancer cell line IGROV1 has been kindly provided by Prof. Colnaghi (Istituto Nazionale Tumori (IRCCS) (Milano, Italy). Cells were cultured in RPMI 1640 medium (Labtek Eurobio, Milan, Italy), supplemented with 10% FCS (Euroclone, Milano, Italy) and 2 mM L-glutamine (Sigma-Aldrich, Milano, Italy), at 37 °C, and a 5% CO2 atmosphere. The compounds were dissolved in DMSO in a 30–40 mM stock solution. In cell treatments, the final DMSO concentration never exceeded 0.1%.
(§3) Cells were seeded at 1.5 × 10^4 cells/well in a 96-well culture plastic plate (Sarsted, Milan, Italy), and after 24 h of growth were exposed to increasing concentrations of each distinct compound (from 0.010 μM to 500 μM) solubilized in RPMI 1640 medium. MTT assay was performed according to the literature. In brief, after 24 h of treatment, the culture medium was replaced with 0.1 mL of 3-(4,5-dimethylthiazolyl-2)-2,5-diphenyltetrazolium bromide (MTT, Sigma-Aldrich, Milano, Italy) dissolved in PBS at the concentration of 0.2 mg/mL, and samples were incubated for 2 h at 37 °C. The absorbance at 570 nm was measured using a multiwell plate reader (Tecan, Männemorf, Switzerland), and data were analyzed by Prism GraphPad software, and expressed as IC50 μM.

[2] = test system: I407 (human embryonic intestinal) cells; experiment: MTT viability assay, I407; assay type: cell-based; conditions: Homo sapiens, 24 h, normal cells
Description: as §1, §2, §3

δ-OR = target: T1, δ-OR (Homo sapiens, UniProt P41143); experiment: Radioligand binding assay, δ-OR ([3H]deltorphin-2 displacement); conditions: [3H]deltorphin-2, membranes of CHO cells with human recombinant OR; ± SEM (n ≥ 3)
T1 construct: purchased PerkinElmer (Krakow, Poland); host or cells: CHO cells (membranes)
T1 sequence (P41143 whole entry): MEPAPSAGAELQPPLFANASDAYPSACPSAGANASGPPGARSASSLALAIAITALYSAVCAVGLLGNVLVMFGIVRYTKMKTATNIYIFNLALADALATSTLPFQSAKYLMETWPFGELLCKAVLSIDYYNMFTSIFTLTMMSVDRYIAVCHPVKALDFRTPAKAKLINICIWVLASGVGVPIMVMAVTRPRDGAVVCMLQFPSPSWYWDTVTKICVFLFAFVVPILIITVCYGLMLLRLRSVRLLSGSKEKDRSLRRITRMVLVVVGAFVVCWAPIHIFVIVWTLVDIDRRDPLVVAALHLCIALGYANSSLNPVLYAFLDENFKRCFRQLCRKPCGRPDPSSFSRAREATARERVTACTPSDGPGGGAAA
Experimental: (§4) In order to evaluate the affinity of the compounds for μ-, δ-, κ-ORs, radioligand binding assays were performed. Displacement of radioligands, [^3H]DAMGO (μ-OR selective), [^3H]deltorphin-2 (δ-OR selective), and [^3H]U-69593 (κ-OR selective) by the synthetic analogs was investigated in the commercial membranes of CHO cells transfected with human recombinant ORs. […] Due to the modest receptor affinities, the functional activity of the compounds was not investigated.
(§5) Opioid radioligands, [^3H]DAMGO, [^3H]deltorphin-2 and [^3H]U-69593, and human recombinant opioid receptors came from PerkinElmer (Krakow, Poland). GF/B glass fiber strips were purchased from Whatman (Brentford, UK).
(§6) To determine the affinity of peptide analogs at the respective receptors, competition binding experiments were performed. Commercial membranes of CHO cells stably expressing human opioid receptors and the competing radioligands, [^3H]DAMGO, [^3H]deltorphin-2, and [^3H]U-69593 for μ-OR, δ-OR, and κ-OR, respectively, were used. Membranes were incubated in 0.5 mL volume of 50 mM Tris/HCl (pH = 7.4), 0.5% bovine serum albumin (BSA), with a number of peptidase inhibitors (bacitracin, bestatin, captopril) and various concentrations of radioligands for 2 h at 25 °C. Non-specific binding was assessed in the presence of […]. Three independent experiments for each assay were carried out in duplicate. The data were analyzed by a nonlinear least square regression analysis computer program Graph Pad PRISM 6.0 (Graph Pad Software Inc., San Diego, CA, USA). The IC50 values were determined from the logarithmic concentration-displacement curves, and the values of the inhibitory constants (Ki) were calculated according to the equation of Cheng and Prusoff.

Jurkat J6 cells = experiment: MTT viability assay, Jurkat J6; assay type: cell-based, human; conditions: Homo sapiens, Jurkat; MTT, 24 h
Description: as §1, §2, §3

μ-OR = target: T2, μ-OR (Homo sapiens, UniProt P35372); experiment: Radioligand binding assay, μ-OR ([3H]DAMGO displacement); conditions: membranes of CHO cells with human recombinant OR, ± SEM (n ≥ 3)
T2 construct: purchased PerkinElmer (Krakow, Poland); host or cells: CHO cells (membranes)
T2 sequence (P35372 whole entry): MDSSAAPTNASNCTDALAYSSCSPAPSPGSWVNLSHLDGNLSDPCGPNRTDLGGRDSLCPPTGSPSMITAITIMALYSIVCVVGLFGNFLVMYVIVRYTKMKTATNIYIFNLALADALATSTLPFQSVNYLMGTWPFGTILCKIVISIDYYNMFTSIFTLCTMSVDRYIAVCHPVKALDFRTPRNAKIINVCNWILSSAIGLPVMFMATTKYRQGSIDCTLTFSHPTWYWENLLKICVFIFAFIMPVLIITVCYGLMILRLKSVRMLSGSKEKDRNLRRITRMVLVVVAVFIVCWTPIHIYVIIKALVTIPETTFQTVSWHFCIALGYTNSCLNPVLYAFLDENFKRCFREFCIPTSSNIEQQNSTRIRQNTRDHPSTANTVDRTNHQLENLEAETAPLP
Experimental: as §4, §5, §6

[3] = test system: 3T3 (mouse embryonic fibroblast) cells; experiment: MTT viability assay, 3T3; assay type: cell-based; conditions: 24 h, normal cells
Description: as §1, §2, §3

κ-OR = target: T3, κ-OR (Homo sapiens, UniProt P41145); experiment: Radioligand binding assay, κ-OR ([3H]U-69593 displacement); conditions: [3H]U-69593, membranes of CHO cells with human recombinant OR; ± SEM (n ≥ 3)
T3 construct: purchased PerkinElmer (Krakow, Poland); host or cells: CHO cells (membranes)
T3 sequence (P41145 whole entry): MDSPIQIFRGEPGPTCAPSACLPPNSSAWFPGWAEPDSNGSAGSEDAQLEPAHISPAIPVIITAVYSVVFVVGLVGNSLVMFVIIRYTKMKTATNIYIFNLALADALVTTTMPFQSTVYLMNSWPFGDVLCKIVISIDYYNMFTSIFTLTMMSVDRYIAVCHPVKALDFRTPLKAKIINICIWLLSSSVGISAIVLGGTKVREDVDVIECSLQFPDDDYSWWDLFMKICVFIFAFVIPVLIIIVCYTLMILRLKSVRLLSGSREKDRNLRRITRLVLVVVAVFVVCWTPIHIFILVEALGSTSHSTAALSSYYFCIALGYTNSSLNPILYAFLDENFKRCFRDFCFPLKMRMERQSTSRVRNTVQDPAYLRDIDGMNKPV
Experimental: as §4, §5, §6

[4] = test system: HT29 (human colorectal adenocarcinoma) cells; experiment: MTT viability assay, HT29; assay type: cell-based; conditions: for IC50: Homo sapiens, HT-29, MTT, 24 h; for Selectivity Index IC503T3/ IC50HT29: 3T3 normal cells as reference
Description: as §1, §2, §3

[5] = test system: MCF7 (human breast cancer) cells; experiment: MTT viability assay, MCF7; assay type: cell-based; conditions: for IC50: Homo sapiens, MCF7, MTT, 24 h
Description: as §1, §2, §3

[6] = test system: HeLa (human cervical carcinoma) cells; experiment: MTT viability assay, HeLa; assay type: cell-based; conditions: for IC50: Homo sapiens, MTT, 24 h; for Selectivity Index IC503T3/ IC50HeLa: 3T3 normal cells as reference; for Selectivity Index IC50I407/ IC50HeLa: I407 normal cells as reference
Description: as §1, §2, §3

[7] = test system: IGROV-1 (human ovarian carcinoma) cells; experiment: MTT viability assay, IGROV-1; assay type: cell-based; conditions: 24 h
Description: as §1, §2, §3

| SMILES | IC50 [1] | Ki (δ-OR) | IC50 (Jurkat J6 cells) | Ki (μ-OR) | Ki (κ-OR) | Ki (µM) κ-OR (κ-OR) | IC50 [4] | IC50 [5] | IC50 [6] | IC50 [7] | Selectivity Index IC50I407/ IC50PC3 ([1]; I407 normal cells as reference) | IC50 [2] | IC50 [3] | Selectivity Index IC50I407/ IC50MCF7 ([5]; I407 normal cells as reference) | Selectivity Index IC503T3/ IC50PC3 ([1]; 3T3 normal cells as reference) | Selectivity Index IC503T3/ IC50HT29 [4] | Selectivity Index IC50I407/ IC50HT29 ([4]; I407 normal cells as reference) | Selectivity Index IC503T3/ IC50HeLa [6] | Selectivity Index IC50I407/ IC50HeLa [6] | Selectivity Index IC503T3/ IC50MCF7 ([5]; 3T3 normal cells as reference) |
| --- | --- | --- | --- | --- | --- | --- | --- | --- | --- | --- | --- | --- | --- | --- | --- | --- | --- | --- | --- | --- |
| NC(=O)CN(Cc1ccc(N)cc1)C(=O)Cc1c[nH]c2ccccc12 [Compound 6] | 166 ± 0.03 µM | 85.5 ± 2 µM | > 500 µM | 451 ± 11 µM | 26.7 ± 9.5 µM | – | > 500 µM | > 500 µM | > 500 µM | > 500 µM | – | > 500 µM | 0.11 ± 0.03 µM | – | 0.001 | – | – | – | – | – |
| Nc1ccc(CN(CCCO)C(=O)Cc2c[nH]c3ccccc23)cc1 [Compound 7] | > 500 µM | 115 ± 45 µM | > 500 µM | – | 3.8 ± 0.3 µM | low μM range | > 500 µM | 0.49 ± 0.01 µM | > 500 µM | > 500 µM | – | > 500 µM | > 500 µM | – | – | – | – | – | – | – |
| Nc1ccc(CNC(=O)Cc2c[nH]c3ccccc23)cc1 [Compound 4] | > 500 µM | – | > 500 µM | – | 7.4 ± 1.3 µM | – | 0.96 ± 0.04 µM | 0.84 ± 0.03 µM | 1.87 ± 0.02 µM | > 500 µM | – | > 500 µM | 0.63 ± 0.02 µM | – | – | 0.656 | – | 0.337 | – | 0.75 |

Continued, in another order:

| IC50 [1] | Ki (δ-OR) | IC50 (Jurkat J6 cells) | Ki (μ-OR) | Ki (κ-OR) | Ki (µM) κ-OR (κ-OR) | IC50 [4] | IC50 [5] | IC50 [6] | IC50 [7] | SMILES | Selectivity Index IC50I407/ IC50PC3 ([1]; I407 normal cells as reference) | IC50 [2] | IC50 [3] | Selectivity Index IC50I407/ IC50MCF7 ([5]; I407 normal cells as reference) | Selectivity Index IC503T3/ IC50PC3 ([1]; 3T3 normal cells as reference) | Selectivity Index IC503T3/ IC50HT29 [4] | Selectivity Index IC50I407/ IC50HT29 ([4]; I407 normal cells as reference) | Selectivity Index IC503T3/ IC50HeLa [6] | Selectivity Index IC50I407/ IC50HeLa [6] | Selectivity Index IC503T3/ IC50MCF7 ([5]; 3T3 normal cells as reference) |
| --- | --- | --- | --- | --- | --- | --- | --- | --- | --- | --- | --- | --- | --- | --- | --- | --- | --- | --- | --- | --- |
| 2.13 ± 0.04 µM | 9 ± 0.6 µM | > 500 µM | 54.6 ± 3.5 µM | 2.5 ± 0.4 µM | low μM range | > 500 µM | 0.81 ± 0.03 µM | > 500 µM | > 500 µM | Nc1ccc(CC(=O)N(CCc2c[nH]c3ccccc23)Cc2ccccc2)cc1 [Compound 2] | 0.164 | 0.35 ± 0.03 µM | > 500 µM | 0.432 | – | – | – | – | – | – |
| > 500 µM | 37.1 ± 1.4 µM | > 500 µM | – | 5 ± 2.9 µM | – | 0.31 ± 0.06 µM | > 500 µM | 25 ± 0.06 µM | > 500 µM | O=C(CCc1ccc(O)cc1)N(CCc1c[nH]c2ccccc12)Cc1ccccc1 [Compound 1] | – | 63 ± 0.06 µM | 164.3 ± 0.01 µM | – | – | 530 | 203.23 | 6.572 | 2.52 | – |
| > 500 µM | 6.5 ± 0.8 µM | > 500 µM | 10.7 ± 1.7 µM | 7.8 ± 0.2 µM | – | > 500 µM | > 500 µM | 5.64 ± 0.01 µM | > 500 µM | Nc1ccc(CC(=O)Nc2ccc(CC(=O)N(CCc3c[nH]c4ccccc34)Cc3ccccc3)cc2)cc1 [Compound 3] | – | 75 ± 0.07 µM | 0.5 ± 0.04 µM | – | – | – | – | 0.089 | 13.29 | – |
